# Laboratory results as given in patent publication US20110039783A1, “PEPTIDE HAVING HYPOTENSIVE ACTIVITY” (DAIICHI SANKYO COMPANY LIMITED, priority 2007, published 2011).
# Entries after “also recorded” stand apart in the source; their conditions may differ.
# Key:
# [1] = tested on: blood pressure of anesthetized Sprague-Dawley IGS male rats; assay: Hypotensive activity in anesthetized rats, invasive blood pressure measurement after intravenous administration; assay type: in vivo, rat; details: for Hypotensive activity (dose/rat) 10 nmol / Hypotensive activity (dose/rat) 30 nmol: intravenous; for Hypotensive activity (dose/rat) 10 nmol: 10 nmol/rat; for Hypotensive activity (dose/rat) 30 nmol: 30 nmol/rat
# [2] = tested on: blood pressure of awake Sprague-Dawley IGS male rats; assay: Hypotensive activity on awake rats; assay type: in vivo, rat; set-up: key to Hypotensive activity (dose/rat) 10 nmol / Hypotensive activity (dose/rat) 30 nmol: Extremely strong activity (+++): A decrease in systolic blood pressure is 30 mmHg or more, and the time required for recovery is 5 minutes or more.; Strong activity (++): A decrease in systolic blood pressure is 20 mmHg or more and less than 30 mmHg, or the time required for recovery is less than 5 minutes.; Activity observed (+): A decrease in systolic blood pressure is less than 20 mmHg.; Activity not observed (−)
# Procedure: 50 mg/kg pentobarbital sodium was intraperitoneally administered to 8- to 10-week-old Sprague-Dawley IGS male rats (Charles River Laboratories Japan, Inc.) for anesthesia. Thereafter, a jugular vein cannula (Silascon 0.5-1.0) was inserted into each rat for use in peptide administration, and a carotid artery cannula (PE50) was inserted into each rat for use in the measurement of blood pressure. At least 3 hours after the surgery, it was confirmed that the rats were awoken from the anesthesia based on general conditions such as the posture, respiration, and the like of the rats. Thereafter, the rats were subjected to the experiment.
# The carotid artery cannula was connected with a pressure transducer (PE23XL; manufactured by Nihon Kohden Corporation), and an apparatus formed by incorporating a blood pressure measurement unit (AP-641G; manufactured by Nihon Kohden Corporation) and an instantaneous heart rate measurement unit (AT-601G; manufactured by Nihon Kohden Corporation) into a multi-purpose preamplifier (RP-6004; manufactured by Nihon Kohden Corporation) was used to record the blood pressure and heart rate of each rat. The blood pressure was calibrated using a mercury manometer included in a stand-type electromanometer (MP-25S; manufactured by Nihon Kohden Corporation). The recording paper was adjusted, such that 20 mm or 40 mm on the recording paper corresponded to 100 mmHg. A solvent in which each peptide had been dissolved was used as a negative control in blood pressure fluctuation.
# Each peptide was dissolved in a concentration of 1 mM in a 5% mannitol solution to prepare a peptide solution. Thereafter, depending on dose, it was diluted with a 5% mannitol solution. In the case of the dose of 10 nmol/rat, a 1 mM peptide solution was 30 times diluted, and 300 μL of the diluted solution was administered. In the case of the dose of 30 nmol/rat, a 1 mM peptide solution was 10 times diluted, and 300 μl of the diluted solution was administered. In the case of the dose of 100 nmol/rat, a 1 mM peptide solution was 3 times diluted, and 300 μL of the diluted solution was administered. Each peptide was intravenously administered via the jugular vein cannula, and the systolic blood pressure, diastolic blood pressure, and heart rate were then measured.
# The definition of the strength of hypotensive activity was the same as that of Example 3.
# [3] = tested on: blood pressure of awake C57BL/6 mice; assay: Hypotensive activity on awake mice (tail cuff, systolic blood pressure); assay type: in vivo, mouse; details: caudal vein, 0.1 and 1 mg/kg, FIG. 2, listed as HC021-007
# Procedure: A C57BL/6 mice with a body weight of 30 to 40 g (Charles River Laboratories Japan, Inc.) were each placed in a retaining appliance of a non-preheating, non-invasive blood pressure monitor for mice and rats (MODEL MK-2000; Muromachi Kikai Co., Ltd.), and a cuff-pulse sensor was then attached to the root of the tail. After confirming that the blood pressure of each mouse had been stable, the mouse was subjected to the experiment.
# A peptide solution was prepared by diluting each peptide with a normal saline, depending on the dose. In the case of the dose of 0.1 mg/kg, a 0.02 mg/mL peptide solution was prepared. In the case of the dose of 1 mg/kg, a 0.2 mg/mL peptide solution was prepared. The amount of the solution to be administered was set at 5 mL/kg. As a positive control, a human atrial natriuretic peptide (hANP) was used. As a negative control, a normal saline was used. Each peptide was administered via the caudal vein using a syringe with a 29G needle. Three and ten minutes after the administration, the systolic blood pressure and the heart rate were measured.
substance,measurement,setting,value
ATVRNEDKWKPLNNPRNRDLFFRRLQAYFK-amide (C-terminal amide) [Compound 5],Hypotensive activity (dose/rat) 10 nmol,"[1]; Table 1, anesthetized rats","++ (Strong activity (++): A decrease in systolic blood pressure is 20 mmHg or more and less than 30 mmHg, or the time required for recovery is less than 5 minutes.)"
same,Hypotensive activity (dose/rat) 30 nmol,"[1]; Table 1, anesthetized rats","+++ (Extremely strong activity (+++): A decrease in systolic blood pressure is 30 mmHg or more, and the time required for recovery is 5 minutes or more.)"
same,Hypotensive activity (dose/rat) 10 nmol,"[1]; Table 2, anesthetized rats","++ (Strong activity (++): A decrease in systolic blood pressure is 20 mmHg or more and less than 30 mmHg, or the time required for recovery is less than 5 minutes.)"
same,Hypotensive activity (dose/rat) 30 nmol,"[1]; Table 2, anesthetized rats","+++ (Extremely strong activity (+++): A decrease in systolic blood pressure is 30 mmHg or more, and the time required for recovery is 5 minutes or more.)"
same,Hypotensive activity (dose/rat) 10 nmol,"[1]; Table 3, anesthetized rats","++ (Strong activity (++): A decrease in systolic blood pressure is 20 mmHg or more and less than 30 mmHg, or the time required for recovery is less than 5 minutes.)"
same,Hypotensive activity (dose/rat) 30 nmol,"[1]; Table 3, anesthetized rats","+++ (Extremely strong activity (+++): A decrease in systolic blood pressure is 30 mmHg or more, and the time required for recovery is 5 minutes or more.)"
same,dose dependence of hypotensive activity,"[1]; anesthetized rats, 10, 30, 100 nmol/rat",enhanced their hypotensive activity in a dose-dependent manner
same,hypotensive activity (in words),"[1]; anesthetized rats, Table 1 and FIG. 1, 10 or 30 nmol/rat, listed as HC021-007",observed to have a hypotensive activity; also recorded: act to lower the blood pressure of rats
same,hypotensive activity (in words),[2],observed to have a hypotensive activity even on the awake rats
same,Hypotensive activity (dose/rat) 10 nmol,"[2]; Table 4, intravenous, 10 nmol/rat",−
same,Hypotensive activity (dose/rat) 30 nmol,"[2]; Table 4, intravenous, 30 nmol/rat","++ (Strong activity (++): A decrease in systolic blood pressure is 20 mmHg or more and less than 30 mmHg, or the time required for recovery is less than 5 minutes.)"
same,Hypotensive activity (dose/rat) 100 nmol,"[2]; Table 4, intravenous, 100 nmol/rat","+++ (Extremely strong activity (+++): A decrease in systolic blood pressure is 30 mmHg or more, and the time required for recovery is 5 minutes or more.)"
same,"hypotensive activity (in words), change in systolic blood pressure",[3],exhibited a hypotensive activity even on the awake mice; also recorded: lower the blood pressure of awake mice
